Experimental data published in PMC11915032, “Development of a Novel ^18F-Labeled Radioligand for Imaging Cholesterol 24-Hydroxylase with Positron Emission Tomography” (ACS Pharmacology & Translational Science, 2025).

Tests used:
CYP46A1 [1] = biological target: T1, CYP46A1 (Homo sapiens, UniProt Q9Y6A2); experiment: CYP46A1 inhibition potency; type: biochemical
[2] = logD by shake flask method; type: physicochemical; conditions: n-octanol/PBS
Procedure: The lipophilicity was measured according to a previous report.[21] In brief, [^18F]5, n-octanol (3 mL), and PBS (3 mL) were added in a centrifugal tube, followed by vortexing for 3 min and centrifugation (∼14,000 rpm) for 5 min. Then, PBS (around 500 μL) and n-octanol (around 50 μL) were weighed and measured by a gamma counter.

67 major CNS targets = experiment: Off-target binding screen at 10 μM (NIMH PDSP); conditions: 10 μM testing concentration; except sigma-2 receptor
Procedure: Furthermore, off-target binding assays of compound 5 were performed in vitro against 67 major CNS targets (Figure S1 in the Supporting Information).
1 Supporting Scheme, Figures, and Tables
Scheme S1. Synthesis of precursor 6. (i) azetidin-3-ol hydrochloride, triphosgene, NEt 3, dichloromethane, 0 °C to room temperature, 1 h; (ii) 4-nitrobenzenesulfonyl chloride, 4-(dimethylamino)pyridine, NEt3, dichloromethane, room temperature, 12 h, 31% yield over […]
% Inhibition of Target Activity
Figure S1. Off-target pharmacological evaluation of compound 5 against major CNS targets, including common GPCRs, enzymes, ion channels, and transporters: initial screening at a concentration of 10 μM (supported by the NIMH PDSP). All data are mean

CYP46A1 [3] = biological target: T2, CYP46A1 (Rattus norvegicus, UniProt A0ACM8QFK4); experiment: In vitro autoradiography with [^18F]5 on rat brain tissue sections; type: binding; conditions: displacement of [^18F]5 with unlabeled 5 at varying concentrations
T2 construct: from tissue; host or cells: rat brain (Sprague-Dawley rats)
T2 sequence (A0ACM8QFK4 29-500): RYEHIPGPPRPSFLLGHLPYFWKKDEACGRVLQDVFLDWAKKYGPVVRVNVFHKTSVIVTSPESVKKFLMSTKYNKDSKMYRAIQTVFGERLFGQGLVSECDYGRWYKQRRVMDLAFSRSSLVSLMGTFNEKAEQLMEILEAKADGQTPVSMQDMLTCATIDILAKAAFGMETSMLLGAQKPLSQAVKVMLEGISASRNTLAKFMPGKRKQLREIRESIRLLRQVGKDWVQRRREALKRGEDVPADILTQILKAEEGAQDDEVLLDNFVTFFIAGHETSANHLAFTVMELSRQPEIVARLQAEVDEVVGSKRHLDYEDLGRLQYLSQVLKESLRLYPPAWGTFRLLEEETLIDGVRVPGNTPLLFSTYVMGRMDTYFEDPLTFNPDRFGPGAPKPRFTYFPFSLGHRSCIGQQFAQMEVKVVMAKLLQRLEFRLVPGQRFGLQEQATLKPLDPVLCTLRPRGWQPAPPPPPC
Procedure: To assess the binding specificity of [^18F]5 for CYP46A1, in vitro autoradiography was performed by using rat brain tissue sections. […] The accumulation patterns are in agreement with the brain distribution of CYP46A1 in rodents.[18] […] Furthermore, [^18F]5 was utilized to assess the potency toward CYP46A1 through an inhibition assay based on an in vitro autoradiography study (Figure 4B). The assay was performed by the incubation of [^18F]5 on rat brain tissue sections in the presence of unlabeled 5 at varying concentrations.
The autoradiography study was conducted as previously reported.[22],[23] In brief, sagittal rat brain sections (20 μm) were incubated with Tris–HCl buffer (50 mM) at room temperature for 20 min and then incubated with [^18F]5 (1 μCi/mL). In the blocking study, the brain sections were incubated with [^18F]5 in the presence of Soticlestat, CHL2205, or 5 (10 μM). Then, the brain sections were washed with ice-cold Tris–HCl buffer (50 mM) for 2 min and cold distilled water for 10 s. Subsequently, the brain sections were dried, positioned on an imaging screen, and scanned by an Amersham Typhoon analyzer system.

[4] = In vitro stability in saline; type: physicochemical; conditions: saline 18.5 MBq/mL, containing 5% ethanol, up to 60 min
Procedure: The ^18F-labeling nosylate precursor 6 was prepared via a procedure similar to that of compound 5 in 31% yield over two steps (Scheme S1). […] [^18F]5 was generated in a 13% decay-corrected radiochemical yield with a high molar activity of 93 GBq/μmol (2.5 Ci/ μmol).

Stability in mouse serum = type: in vitro ADME; conditions: 37 °C, up to 60 min
Procedure: (§1) Mouse serum (Sigma-Aldrich, cat. M5905, 0.4 mL), rat serum (Abcam, cat. ab7488, 0.4 mL), NHP serum (Abcam, cat. ab155109, 0.4 mL), and human serum (Sigma-Aldrich, cat. H4522, 0.4 mL) were incubated at 37 °C for 5 min. Then, formulated [^18F]5 was added and incubated at 37 °C (Benfluorex was used in the positive control test). At 5, 30, and 60 min after incubation with [^18F]5, 100 μL of the samples was drawn in centrifugal tubes and added to ice-cold MeCN (100 μL). The mixtures were centrifuged at 10,000g for 5 min, and the supernatants were analyzed by radio-HPLC.

Stability in rat serum = type: in vitro ADME; conditions: 37 °C, up to 60 min
Procedure: as §1

Stability in NHP serum = type: in vitro ADME; conditions: 37 °C, up to 60 min
Procedure: as §1

Stability in human serum = type: in vitro ADME; conditions: 37 °C, up to 60 min
Procedure: as §1

CYP46A1 [5] = biological target: T2, CYP46A1; experiment: Dynamic PET imaging in Sprague-Dawley rats; type: in vivo
Procedure: To investigate the in vivo binding specificity of [^18F]5 toward CYP46A1, dynamic PET imaging was performed in Sprague–Dawley (SD) rats (Figures 5 and S3 in the Supporting Information). […] Future studies will be required to evaluate its suitability in higher species and direct comparisons under identical experimental conditions. […] To investigate the reversibility of the tracer binding, we further performed a displacement study with Soticlestat at 20 min postadministration of [^18F]5 (Figure S4 in the Supporting Information).
The dynamic PET imaging study was performed in SD rats as previously reported.[21] A Genisys G8 PET scanner (Sofie Biosciences, USA) was used for dynamic PET imaging in rats with [^18F]5 (0.04 mCi) for 60 min. In the blocking study, rats were pretreated with Soticlestat (1 mg/kg, intravenous injection via the tail vein) 10 min before administration of [^18F]5. For the chase study, the rats were treated with Soticlestat (1 mg/kg, i.v.) 20 min after administration of [^18F]5.

[6] = Whole-body biodistribution in CD-1 mice; type: in vivo, mouse
Procedure: The biodistribution study was conducted in CD-1 mice as previously reported.[24] CD-1 mice were administrated with [^18F]5 (10 μCi) and divided into four groups and then euthanized at 5, 15, 30, and 60 min after administration of [^18F]5. Major organs were collected, weighed, and measured by a gamma counter.

[7] = Radiometabolite analysis in SD rats; type: in vivo, rat
Procedure: Radiometabolite analysis of [^18F]5 was conducted as previously reported.[25] SD rats were administrated with [^18F]5 and then euthanized at 20 and 60 min after administration of [^18F]5. The brains were collected, homogenized, and centrifuged with cold acetonitrile and PBS buffer. Then, the supernatants were injected into a radio-HPLC with unlabeled 5 as an internal standard. Both [^18F]5 and its ^18F-metabolites were collected by HPLC and then measured by a gamma counter. The same procedure was performed for the plasma.

CYP46A1 [8] = biological target: T1, CYP46A1; design: method as in PMID 32178974, PMID 34651220, PMID 37770111, PMID 36197966; conditions: in vivo; cited from earlier work

T1 sequence (Q9Y6A2 whole entry, species assumed): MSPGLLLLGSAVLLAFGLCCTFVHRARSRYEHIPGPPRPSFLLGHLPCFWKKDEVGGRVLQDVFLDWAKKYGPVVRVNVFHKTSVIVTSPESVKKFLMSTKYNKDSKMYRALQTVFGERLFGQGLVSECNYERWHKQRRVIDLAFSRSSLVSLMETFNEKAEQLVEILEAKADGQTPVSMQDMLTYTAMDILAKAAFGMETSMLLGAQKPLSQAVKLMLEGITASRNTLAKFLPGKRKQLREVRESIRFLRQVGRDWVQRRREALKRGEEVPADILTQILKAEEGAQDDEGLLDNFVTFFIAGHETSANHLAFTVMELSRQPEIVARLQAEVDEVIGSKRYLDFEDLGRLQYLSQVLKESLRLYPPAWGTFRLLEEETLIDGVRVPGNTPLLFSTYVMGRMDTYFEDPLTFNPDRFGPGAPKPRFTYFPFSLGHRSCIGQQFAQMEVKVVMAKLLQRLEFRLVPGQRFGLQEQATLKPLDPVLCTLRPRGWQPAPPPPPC

Structure (SMILES): O=C(N1CC(F)C1)N1CCc2c(-c3cnco3)cc(C(F)(F)F)cc21 [Compound 5, (3-fluoroazetidin-1-yl)(4-(oxazol-5-yl)-6-(trifluoromethyl)indolin-1-yl)methanone]
- IC50 (CYP46A1 [1]): 0.11 nM
- logD [2]: 3.16
- off-target binding (>50% inhibition) (67 major CNS targets): no significant off-target binding
- Kd (CYP46A1 [3]): 0.37 nM

Structure (SMILES): O=C(N1CC([18F])C1)N1CCc2c(-c3cnco3)cc(C(F)(F)F)cc21 [[^18F]5]
- IC50 (CYP46A1 [1]): 0.11 nM
- in vitro stability (radiolysis) in saline [4]: no radiolysis detected
- stability in mouse serum (Stability in mouse serum): minimal radiometabolite formation
- stability in rat serum (Stability in rat serum): minimal radiometabolite formation
- stability in NHP serum (Stability in NHP serum): minimal radiometabolite formation
- stability in human serum (Stability in human serum): minimal radiometabolite formation
- SUVmax in striatum (CYP46A1 [5]; SD rats, baseline PET): 4.1
- SUVmax in thalamus (CYP46A1 [5]; SD rats, baseline PET): 4.2
- brain uptake SUV (CYP46A1 [5]; rodents): > 4
- bone uptake (radiodefluorination) ([6]; 5-60 min): No obvious increase in bone uptake
- liver uptake ([6]; 60 min): 6.5 % ID/g
- initial uptake in brain, small intestine, kidney and liver ([6]; initially): ~10 % ID/g
- unchanged [^18F]5 in brain ([7]; 20 min postadministration): 93%
- unchanged [^18F]5 in plasma ([7]; 20 min postadministration): 29%
- unchanged [^18F]5 in brain ([7]; 60 min postadministration): 92%
- unchanged [^18F]5 in plasma ([7]; 60 min postadministration): 23%

Structure (SMILES): O=C(c1cccnc1-c1ccncc1)N1CCC(O)(Cc2ccccc2)CC1 [Soticlestat, reference compound]
- brain signal in displacement (chase) study (CYP46A1 [5]; 1 mg/kg i.v. at 20 min postadministration of [^18F]5): markedly reduced

Structure (SMILES): O=[11C](NCc1ccccc1)N1CCN(c2cncnc2-c2ccccc2)CC1 [[^11C]A]
- binding specificity toward CYP46A1 (CYP46A1 [8]): marginal binding specificity
- brain uptake (CYP46A1 [8]): low brain uptake

Structure (SMILES): O=C(C1CCN(c2cncnc2-c2ccc(F)cc2)CC1)N1CC([18F])C1 [[^18F]T-008]
- binding specificity toward CYP46A1 (CYP46A1 [8]): good binding specificity
- brain uptake (CYP46A1 [8]): high brain uptake

Structure (SMILES): CN(C(=O)C1CCN(c2cncnc2-c2ccc([18F])cc2)CC1)C1CC1 [[^18F]CHL2205]
- binding specificity toward CYP46A1 (CYP46A1 [8]): good binding specificity
- brain uptake (CYP46A1 [8]): high brain uptake

Structure (SMILES): O=C(C1CCN(c2cnccc2-n2cc(Cl)cn2)CC1)N1CC([18F])C1 [[^18F]3g]
- binding specificity toward CYP46A1 (CYP46A1 [8]): good binding specificity
- brain uptake (CYP46A1 [8]): high brain uptake
